These results are taken from patent publication US6727244B2, “Mammalian metabolites of a tachykinin receptor antagonist” (Merck & Co., Inc., priority 2000, dated 2004).

Holding throughout (assay type): in vitro ADME
Data set [1] is described as follows: glucuronidation in liver microsomes from humans. The conditions noted are these: human liver microsomes, UDPGA, 37° C. for 60 min. On the procedure:
All liver microsomal and cytosolic fractions were prepared using the following procedure. Thawed livers were homogenized with 2 volumes of 50 mM Tris-buffer (pH 7.5) containing 1.15% KCl. For microsomal and cytosolic preparations, the homogenate was centrifuged for 20 min at 9,000×g and the resulting supernatant was centrifuged for 60 min at 105,000×g. The resulting cytosolic fractions were re-centrifuged at 105,000×g for 60 min. Fractions of cytosol were aliquoted into small tubes and stored at −70° C. Subsequently, the microsomal pellets were washed with 10 mM EDTA containing 1.15% KCl and were centrifuged at 105,000×g for 60 min. […] Protein concentrations were determined by a modified Lowry assay (Smith et al., 1985). The specific cytochrome P450 content in each microsomal preparation was measured as described by Omura and Sato, J. Biol. Chem. 239, 2370-2378 (1964).
The typical reaction mixture (500 μl) containing 10 mM MgCl2, 2% glycerol, 0.02% lubrol PX, 3 mM UDPGA, 1 mg liver microsomes, 50 mM bis-tris propane buffer (pH 8.5) and ˜10 or 25 μM compound (in 15 μl methanol) was incubated at 37° C. for 30-60 min. After incubation, the reactions were terminated by the addition of four volumes of acetonitrile and processed and analyzed by HPLC as mentioned above.

Data set [2] is described as follows: oxidative metabolism in liver microsomes from rats. As to conditions: rat liver microsomes, 15 min incubation. On the procedure:
All liver microsomal and cytosolic fractions were prepared using the following procedure. Thawed livers were homogenized with 2 volumes of 50 mM Tris-buffer (pH 7.5) containing 1.15% KCl. For microsomal and cytosolic preparations, the homogenate was centrifuged for 20 min at 9,000×g and the resulting supernatant was centrifuged for 60 min at 105,000×g. The resulting cytosolic fractions were re-centrifuged at 105,000×g for 60 min. Fractions of cytosol were aliquoted into small tubes and stored at −70° C. Subsequently, the microsomal pellets were washed with 10 mM EDTA containing 1.15% KCl and were centrifuged at 105,000×g for 60 min. Washed microsomes were resuspended in 10 mM potassium phosphate buffer (pH 7.4) containing 250 mM sucrose, aliquoted into small tubes, and stored at −70° C. Protein concentrations were determined by a modified Lowry assay (Smith et al., 1985). The specific cytochrome P450 content in each microsomal preparation was measured as described by Omura and Sato, J. Biol. Chem. 239, 2370-2378 (1964). […]
Method A was conducted on a Shimadzu HPLC system (Shimadzu Scientific Instruments Inc., Columbia Md.). The parent compounds and their metabolites were monitored directly using a radiometric detector (INUS Systems Inc. Tampa, Fla.) and Ultima-Flow M (Packard Instrument Co., Meridan Conn.) as scintillant at a flow rate of 3 mL/min. […]

The target in data set [3] is T1, recombinant human CYP isozymes (Homo sapiens, UniProt P08684).
T1 construct: host or cells: Baculovirus-infected sf21 insect cells (microsomes)
Nature of the data set: metabolism by microsomes containing recombinant human CYP isozymes. The conditions noted are these: parent to M-1 (N-dealkylation); M-1 to M-2 (oxidation); M-3 to M-4 (hydroxylation); M-2 to M-5 (conversion). As to the method: Hepatocytes were harvested from male Sprague-Dawley rat livers or human livers and cultured on a matrigel support and treated with 0.1 μM dexamethasone or 50 μM rifampicin, respectively, for 48 hr prior to the addition of the test compounds. A 2.5 mM stock solution of [^14C]2-(R)-(1-(R)-(3,5-bis(trifluoromethyl)-phenyl)ethoxy)-3-(S)-(4-fluoro)phenyl-4-(3-(5-oxo-1H,4H-1,2,4-triazolo)methylmorpholine, [^14C]M-1 or [^14C]M-2 in DMSO was added to the plates such that the final concentration of test compound was 25 μM and DMSO was 1% (v/v). The cultures were incubated for 4, 6 or 24 hr for rat hepatocytes and 48 hr for human hepatocytes. The incubation mixtures (500 μL) contained 10 μM of test compound, 100 mM phosphate buffer pH 7.4, NADPH-regenerating system, microsomes containing expressed CYP isoforms (CYP1A2, CYP2A6, CYP2B6, CYP2C8, CYP2C9, CYP2C19, CYP2D6, CYP2E1 or CYP3A4) and cytochrome P-450 reductase. The reactions were initiated by adding NADP and proceeded at 37° C. for 15-45 min. Acetonitrile extracts from microsomal and hepatocyte incubates were dissolved in 50% aqueous methanol and fractionated by HPLC. The separation was accomplished on a Zorbax RX C8 analytical column (5 μm, 4.6×250 mm). The mobile phase consisted of solvent A (10 mM ammonium acetate in water) and solvent B (7.3 mM ammonium acetate in 92.7% acetonitrile and 7.3% methanol. The column was eluted by a linear gradient from 35 to 80% B over 40 min at a flow rate of 1 mL/min. Fractions of major metabolites were subjected to LC-MS/MS analysis. Further purification was done using isocratic conditions prior to NMR analysis.
The incubation mixtures (500 μL) contained 10 or 25 μM of test compounds, 100 mM phosphate buffer pH 7.4, NADPH-regenerating system (5 mM glucose-6-phosphate, 1 mM NADP and 0.7 I.U/mL glucose 6-phosphate dehydrogenase), 0.5 to 2 mg/mL liver microsomal protein prepared from rats and humans or microsomes from Baculovirus-infected sf21 cells containing 20 to 200 pmol expressed CYP isoforms (CYP1A2, CYP2A6, CYP2B6, CYP2C8, CYP2C9, CYP2C19, CYP2D6, CYP2E1 or CYP3A4) and cytochrome P450 reductase. Stock solutions of the substrates in methanol were made such that final concentration of methanol in the reaction mixture was 3%. The reactions were initiated by adding 50 μL of 10 mM NADP and proceeded at 37° C. for 15-45 min. After incubation, the reactions were terminated by the addition of four volumes of acetonitrile. The suspensions were mixed vigorously and centrifuged at 3000×g for 5 min. The supernatants were dried and redissolved in 50% methanol for HPLC analysis using method A described below.

T1 sequence (P08684 2-503 limits assumed): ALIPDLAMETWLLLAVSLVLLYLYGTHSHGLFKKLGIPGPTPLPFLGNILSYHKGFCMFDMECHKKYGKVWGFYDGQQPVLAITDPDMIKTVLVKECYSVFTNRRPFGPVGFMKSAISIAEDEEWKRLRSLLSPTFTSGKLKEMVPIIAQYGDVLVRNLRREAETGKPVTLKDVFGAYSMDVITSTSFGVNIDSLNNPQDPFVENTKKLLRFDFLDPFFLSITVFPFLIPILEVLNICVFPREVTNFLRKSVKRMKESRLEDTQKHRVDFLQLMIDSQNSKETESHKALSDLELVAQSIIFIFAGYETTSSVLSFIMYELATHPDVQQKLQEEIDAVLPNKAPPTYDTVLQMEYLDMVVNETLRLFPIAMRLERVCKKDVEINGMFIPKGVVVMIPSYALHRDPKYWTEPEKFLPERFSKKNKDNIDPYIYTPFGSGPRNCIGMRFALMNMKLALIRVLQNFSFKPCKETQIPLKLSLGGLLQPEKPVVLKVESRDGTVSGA

With `C[C@@H](O[C@H]1OCCN[C@H]1c1ccc(F)cc1)c1cc(C(F)(F)F)cc(C(F)(F)F)c1` [Metabolite M-1, (2R,3S)-2-[(1R)-1-[3,5-bis(trifluoromethyl)phenyl]ethoxy]-3-(4-fluorophenyl)morpholine], the “conversion to the corresponding glucuronide” value in data set [1] is around 20%. Also, in data set [2], the “parent compound remained after incubation” value is on record as around 50%. Besides, the “CYP isozyme primarily responsible for the metabolic step” value in data set [3] is reported as “CYP3A4”.
